# Columns and labels:
# mice [1] = assay: Mice elevated plus maze test; assay type: in vivo
# mice [2] = assay: Mice tail suspension test; assay type: in vivo
# From the text: Experimental mechanism: mice tail suspension test was an acute behavioral despair model established by Steru et al (1985). […] This model was easy in operation, with good predictability, and was the most popular model for screening antidepressants. 1) Experimental device: an experimental frame with spacing boards which dividing the experimental frame into 2 experimental chambers (25×25×35 cm). A clamp is mounted on a through cross rod in the chamber. Male Kunming mice weighing 20-25 g. The mice were intragastrically administered with Compound 8, vehicle (distilled water, DW) or positive control drug (desipramine, DMI). After 1 h, wrap adhesive tape around the mouse's tail three quarters of the distance from the base of the tail and then suspend the animals by passing the suspension hook through the adhesive tape 5 cm above the table. The duration of immobility in the last 4 min of total 6 min test was recorded.
# [3] = molecular target: TSPO protein separated and purified from rat heart (Rattus norvegicus (Rat), UniProt P16257); assay: TSPO and radioligand (3H-PK11195) competitive binding test; settings: for Inhibition rate (%): n = 6 times
# Procedure: In the present test, TSPO protein separated and purified from rat heart was used as screening target, via competitive binding test with radioligand (^3H-PK11195), to screen TSPO ligand compounds.
# Wister rats, 220-260 g, female and male, were sacrificed by decapitation and the rat heart were rapidly separated, weighed and to which homogenized in 10 times volume of Tris-HCl buffer solution (50 mM Tris-HCl, 5 mM MgCl2, 1 mM EDTA, 0.5% (W/V) BSA, 1 mM PMSF, 3 μg/ml proteinase inhibitor, 0.1% NaN3, 0.32M sucrose, pH 7.4) at 15,000 rpm for 30 s, total 5 times. The homogenate was centrifuged under 1000×g for 10 minutes and the supernatant was then centrifuged under 30000×g for 20 minutes. The precipitate was collected, and resuspended with 10 times volume of Tris-HCl buffer solution (pH 7.4) relative to the original weight, then centrifuged under 30000×g for 20 minutes. The precipitate was washed with the same buffer solution, centrifuged under 30000×g for 20 minutes and the precipitate was suspended with the above buffer solution. After sub-packaged (the whole operation procedures were performed under ice bath), the product was stored at −80° C.
# 3) Competitive Binding Test of Drug to the Receptor (Rat Heart TSPO) and Radioligand (^3H-PK11195):
# (1) tubes were placed in reaction condition of 30° C.
# (2) all tubes were added with 20 μg of receptor protein in order;
# (3) the test tubes were added in order with 20 μL of drugs in certain concentrations;
# (4) the non-specific binding tubes were added with 20 μL of non-tagged ligand (PK11195), the final concentration of the non-tagged ligand was 0.1 mM, pre-reacted for 30 min;
# (5) all tubes were added in order with 25 μL ^3H-PK11195, the final concentration of the labeled ligand was 1.5 nM;
# (6) Tris-HCl Buffer pH7.4 was used to complement the reaction volumes of all tubes to reach 200 μL;
# (7) the reaction was performed under 30° C. reaction condition for 1 h;
# (8) Then samples were applied to 49-type glass fibre filter, vacuum suction filtered, then washed with 2 ml ice-cold Tris-HCl buffer solution (50 mM Tris-HCl buffer solution, 1 mM EDTA, 5 mM MgCl2, 1 mM PMSF, 0.1% NaN3, 3 μg/ml proteinase inhibitor, pH 7.4). The filter was dried and placed in a scintillation vial with 1 ml of scintillation fluid. The radio-activity was measured by a scintillation counter.
# mice [4] = assay: Mice open field spontaneous locomotor activity test; assay type: in vivo; settings: intragastric
# From the text: Experimental mechanism: the aim was to observe the effects of drugs on central nervous excitation, so as to exclude false positive reactions of anxiolytic or antidepressant effects caused by central nervous excitation.
# 1) Experimental device: the mice open field box was a colorless transparent organic glass box (30×36×25 cm), which bottom surface was divided into 9 lattices.
# 2) Experimental operation: Compound 8(8^#, YL-IPA08), Compound 10(10^#, YL-IPA10), Compound 11(11^#, YL-IPA11) and Compound 13(13^#, YL-IPA13) (separately having three dose groups of 0.03, 0.3, 3 mg/kg) and blank control (distilled water, DW) were administered intragastrically, and the test started after 55 min. During test, the mice were placed in the central area of the open field spontaneous locomotor activity observation box, started timing immediately, the spontaneous activities of mice within 5 min were recorded artificially (observation indexes: number of rearings, number of crossings).
# mice [5] = assay: Blocking effects of TSPO antagonist PK11195 on Compound 8 antidepressant activity in mice tail suspension test; assay type: in vivo; settings: 3 mg/kg, ip
# Procedure: The optimum dose (0.1 mg/kg) of YL-IPA08 in antidepressant effect of mice in tail suspension model was used to perform drug antagonism test, and the method was identical to that of Example 43, except that PK11195 group and PK11195+Compound 8 antagonism group with single intraperitoneal injection (ip) were added, wherein the antagonism group was administered by intraperitoneal injection with PK11195 simultaneously when Compound 8 was intragastrially administered.
# Statistic method: the results were expressed in mean±SEM. The result was determined by two-way analysis of variance, and Bonferroni test was used for group comparison.
# [6] = doses 0.03, 0.3, 3 mg/kg, 55 min after dosing, 5 min observation
# [7] = 9 gradient concentrations, plotting and fitting
SMILES,Inhibition rate (%) ([3]; 1 × 10^−5M),Inhibition rate (%) ([3]; 1 × 10^−7M),Inhibition rate (%) ([3]; 1 × 10^−9M),melting point [°C],also measured
"CN1C(=O)CN=C(c2ccccc2)c2cc(Cl)ccc21 [diazepam, reference compound]",,,,,"minimum effective dose for generating anxiolytic-like effects (mice [1]; mice elevated plus maze, ip): 2 mg/kg"
"CNCCCN1c2ccccc2CCc2ccccc21 [desipramine, reference compound]",,,,,minimum effective dose to generate antidepression activity (mice [2]; mice tail suspension test): 30 mg/kg
"CCN(Cc1ccccn1)C(=O)Cc1c(-c2ccc(Cl)c(Cl)c2)nc2cc(C)ccn12.Cl [Compound 8, N-ethyl-N-(2-pyridinylmethyl)-2-(3,4-dichlorophenyl)-7-methylimidazo[1,2-a]pyridine-3-acetamide.hydrochloride]",100,89,30,217 to 220,"number of rearings, number of crossings (open field spontaneous activity) versus control (mice [4]; [6]): equivalent to those of the control; optimum dose in antidepressant effect (mice [2]; mice tail suspension model): 0.1 mg/kg"
"COCCN(Cc1ccccn1)C(=O)Cc1c(-c2ccc(Cl)c(Cl)c2)nc2cc(C)ccn12.Cl [Compound 11, N-(2-methoxyethyl)-N-(2-pyridinylmethyl)-2-(3,4-dichlorophenyl)-7-methylimidazo[1,2-a]pyridine-3-acetamide.hydrochloride]",100,65,29,236 to 238,"number of rearings, number of crossings (open field spontaneous activity) versus control (mice [4]; dose 3 mg/kg): equivalent to the control; number of rearings, number of crossings (open field spontaneous activity) versus control (mice [4]; doses 0.03 and 0.3 mg/kg): lower than the control"
"COCCN(Cc1cccnc1)C(=O)Cc1c(-c2ccc(OC)cc2)nc2cc(C)ccn12.Cl [Compound 24, N-(2-methoxyethyl)-N-(3-pyridinylmethyl)-2-(4-methoxyphenyl)-7-methylimidazo[1,2-a]pyridine-3-acetamide.hydrochloride]",17,3,0,243 to 245,
"CCN(Cc1ccccc1)C(=O)Cc1c(-c2ccc(C)cc2)nc2cc(C)ccn12 [Compound 13, N-benzyl-N-ethyl-2-(4-methylphenyl)-7-methylimidazo[1,2-a]pyridine-3-acetamide]",97,89,42,220 to 222,"IC50 [3, 7]: 6.99 nM; Ki [3, 7]: 2.97 nM; number of rearings, number of crossings (open field spontaneous activity) versus control (mice [4]; [6]): apparently lower than the control; all elevated plus maze indexes versus control (mice [1]; mice, dose 0.03, 0.3, 3 mg/kg): significantly lower than the control"
"CCN(Cc1cccnc1)C(=O)Cc1c(-c2ccc(C)cc2)nc2cc(C)ccn12.Cl [Compound 15, N-ethyl-N-(3-pyridinylmethyl)-2-(4-methylphenyl)-7-methylimidazo[1,2-a]pyridine-3-acetamide.hydrochloride]",90,15,0,251 to 253,
"CCN(Cc1ccncc1)C(=O)Cc1c(-c2ccc(Cl)c(Cl)c2)nc2cc(C)ccn12.Cl [Compound 10, N-ethyl-N-(4-pyridinylmethyl)-2-(3,4-dichlorophenyl)-7-methylimidazo[1,2-a]pyridine-3-acetamide.hydrochloride]",100,85,23,250 to 252,"number of rearings, number of crossings (open field spontaneous activity) versus control (mice [4]; [6]): equivalent to those of the control"
"COCCN(Cc1cccnc1)C(=O)Cc1c(-c2ccc(Cl)c(Cl)c2)nc2cc(C)ccn12.Cl [Compound 12, N-(2-methoxyethyl)-N-(3-pyridinylmethyl)-2-(3,4-dichlorophenyl)-7-methylimidazo[1,2-a]pyridine-3-acetamide.hydrochloride]",80,20,0,235 to 237,
"CCN(Cc1cccnc1)C(=O)Cc1c(-c2ccc(Cl)cc2)nc2cc(C)ccn12.Cl [Compound 3, N-ethyl-N-(3-pyridinylmethyl)-2-(4-chlorophenyl)-7-methylimidazo[1,2-a]pyridine-3-acetamide.hydrochloride]",100,25,0,236 to 238,
"CCN(Cc1ccccn1)C(=O)Cc1c(-c2ccc(OC)cc2)nc2cc(C)ccn12.Cl [Compound 20, N-ethyl-N-(2-pyridinylmethyl)-2-(4-methoxyphenyl)-7-methylimidazo[1,2-a]pyridine-3-acetamide.hydrochloride]",61,63,0,228 to 230,
"CCN(Cc1cccnc1)C(=O)Cc1c(-c2ccc(Cl)c(Cl)c2)nc2cc(C)ccn12.Cl [Compound 9, N-ethyl-N-(3-pyridinylmethyl)-2-(3,4-dichlorophenyl)-7-methylimidazo[1,2-a]pyridine-3-acetamide.hydrochloride]",86,8,0,245 to 248,
CCC(C)N(C)C(=O)c1cc2ccccc2c(-c2ccccc2Cl)n1 (centres unmarked) [PK11195],,,,,"immobility time in mice tail suspension test, single administration versus control (mice [5]): no significant influence"
"CCN(Cc1ccncc1)C(=O)Cc1c(-c2ccc(C)cc2)nc2cc(C)ccn12.Cl [Compound 16, N-ethyl-N-(4-pyridinylmethyl)-2-(4-methylphenyl)-7-methylimidazo[1,2-a]pyridine-3-acetamide.hydrochloride]",72,41,0,253 to 255,

# From patent US8980887B2, “2-aryl imidazo[1,2-a]pyridine-3-acetamide derivatives, preparation methods and uses thereof” (Institute of Pharmacology, priority 2010, dated 2015)
